Measurements taken from the Kinase Knowledgebase extract (Sharma et al. 2016).

The molecules below were run against PIK3CG (human) (UniProt P48736) (assay: Inhibition of PIK3CG Kinase Activity).
Sequence of PIK3CG (human) (P48736 whole entry, looked up): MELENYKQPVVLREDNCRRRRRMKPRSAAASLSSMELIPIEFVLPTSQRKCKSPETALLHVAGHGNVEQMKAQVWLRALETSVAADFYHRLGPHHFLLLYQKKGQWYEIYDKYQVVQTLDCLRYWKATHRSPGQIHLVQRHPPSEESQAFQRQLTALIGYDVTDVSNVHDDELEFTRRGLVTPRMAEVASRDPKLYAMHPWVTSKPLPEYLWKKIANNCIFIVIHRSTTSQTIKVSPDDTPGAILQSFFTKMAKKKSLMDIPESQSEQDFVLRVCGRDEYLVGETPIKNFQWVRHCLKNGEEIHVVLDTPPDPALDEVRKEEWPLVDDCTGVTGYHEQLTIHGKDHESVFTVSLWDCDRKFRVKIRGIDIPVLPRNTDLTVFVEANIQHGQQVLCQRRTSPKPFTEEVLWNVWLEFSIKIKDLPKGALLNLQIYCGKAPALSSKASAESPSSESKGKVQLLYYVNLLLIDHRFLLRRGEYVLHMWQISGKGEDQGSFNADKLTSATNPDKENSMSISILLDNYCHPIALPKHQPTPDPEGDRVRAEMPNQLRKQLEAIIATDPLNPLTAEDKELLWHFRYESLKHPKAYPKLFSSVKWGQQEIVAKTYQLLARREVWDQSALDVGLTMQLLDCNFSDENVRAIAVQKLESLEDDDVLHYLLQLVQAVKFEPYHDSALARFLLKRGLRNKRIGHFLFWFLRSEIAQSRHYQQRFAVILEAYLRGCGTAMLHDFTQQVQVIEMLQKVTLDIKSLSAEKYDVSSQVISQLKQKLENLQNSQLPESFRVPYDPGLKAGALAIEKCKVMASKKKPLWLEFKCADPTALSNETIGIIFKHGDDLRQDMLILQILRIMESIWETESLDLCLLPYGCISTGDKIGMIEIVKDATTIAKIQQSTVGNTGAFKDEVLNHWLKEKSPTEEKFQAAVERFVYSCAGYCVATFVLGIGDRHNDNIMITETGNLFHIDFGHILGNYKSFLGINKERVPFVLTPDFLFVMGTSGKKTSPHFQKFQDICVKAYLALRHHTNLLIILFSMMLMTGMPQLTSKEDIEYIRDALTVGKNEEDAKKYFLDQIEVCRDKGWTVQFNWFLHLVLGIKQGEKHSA

IC50, < 10 µM:
Nc1nc2ccc(-c3cncc(S(=O)(=O)Nc4cccc(OC(F)F)c4)c3)cn2n1, Nc1nc2ccc(-c3cncc(C(F)(F)F)c3)cn2n1, CS(=O)(=O)c1cccc(-c2ccc3nc(N)nn3c2)c1, Nc1nc2ccc(-c3cncc(S(=O)(=O)N4CCCCC4)c3)cn2n1, CC(=O)Nc1cccc(-c2ccc3nc(N)nn3c2)c1, CCC(CC)CNS(=O)(=O)c1cncc(-c2ccc3nc(N)nn3c2)c1, Nc1nc2ccc(-c3cncc(S(=O)(=O)N4CCC(F)CC4)c3)cn2n1, Nc1nc2ccc(-c3cncc(S(=O)(=O)Nc4cccc(OC(F)(F)F)c4)c3)cn2n1, COc1ccc(-c2cc(Cl)c3nc(N)nn3c2)cc1OC, CCN(C)S(=O)(=O)c1cncc(-c2ccc3nc(N)nn3c2)c1, Nc1nc2ccc(-c3cncc(S(=O)(=O)Cc4ccccc4)c3)cn2n1, Nc1nc2ccc(-c3cncc(NS(=O)(=O)c4cccc(OC(F)(F)F)c4)c3)cn2n1, Nc1nc2ccc(-c3cccc(S(=O)(=O)NCCCC(=O)O)c3)cn2n1, NC(=O)c1ccc(-c2ccc3nc(N)nn3c2)cc1, COc1ccc(-c2ccc3nc(N)nn3c2)cc1, Nc1nc2ccc(-c3cncc(S(=O)(=O)Nc4cccc(OC(F)(F)C(F)F)c4)c3)cn2n1, COc1ccccc1-c1ccc2nc(N)nn2c1, Cc1nc(C)c(CNS(=O)(=O)c2cncc(-c3ccc4nc(N)nn4c3)c2)o1, Nc1nc2ccc(-c3cncc(NS(=O)(=O)c4cc(C(F)(F)F)cc(C(F)(F)F)c4)c3)cn2n1, CC(C)c1ccccc1NS(=O)(=O)c1cncc(-c2ccc3nc(N)nn3c2)c1, Nc1nc2ccc(-c3cncc(S(=O)(=O)NCC4CCOCC4)c3)cn2n1, CN(C)CCNS(=O)(=O)c1cccc(-c2ccc3nc(N)nn3c2)c1, Nc1nc2ccc(-c3cncc(S(=O)(=O)NCc4cccc(Cl)c4Cl)c3)cn2n1, Nc1nc2ccc(-c3cc[nH]n3)cn2n1, Nc1nc2ccc(-c3cncc(S(=O)(=O)NC4CCC(O)CC4)c3)cn2n1 (stereo not given), Nc1nc2ccc(-c3cccc(F)c3)cn2n1, Nc1nc2ccc(-c3cncc(S(=O)(=O)Nc4ccccc4F)c3)cn2n1, CN(C)CCN(C)S(=O)(=O)c1cncc(-c2ccc3nc(N)nn3c2)c1, Nc1nc2ccc(-c3ccncc3)cn2n1, Nc1nc2ccc(-c3cncc(SCc4ccccc4)c3)cn2n1, Nc1nc2ccc(-c3cncc(NS(=O)(=O)Cc4ccc(Cl)cc4)c3)cn2n1, CN(C)S(=O)(=O)c1cncc(-c2ccc3nc(N)nn3c2)c1, Nc1nc2ccc(-c3cncc(S(N)(=O)=O)c3)cn2n1, Nc1nc2ccc(-c3cccc(C(F)(F)F)c3)cn2n1, CS(=O)(=O)c1cncc(-c2ccc3nc(N)nn3c2)c1, CNS(=O)(=O)c1cncc(-c2ccc3nc(N)nn3c2)c1, COc1ccc(NS(=O)(=O)c2cncc(-c3ccc4nc(N)nn4c3)c2)cc1, CC(C)c1ccc(S(=O)(=O)Nc2cncc(-c3ccc4nc(N)nn4c3)c2)cc1, Nc1nc2ccc(-c3cncc(S(=O)(=O)Nc4cccc(C(F)(F)F)c4)c3)cn2n1, Nc1nc2ccc(-c3cn[nH]c3)cn2n1
